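Interpolation was linear, between the two tested concentrations surrounding the appropriate level; five concentrations were tested over 48 hours in 96-well plates. At the GI50, growth is halved.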 Active and inactive are the calls of the source. Rule as the data show it: active = GI50 up to about 1.1 µM and inactive = higher.
Legend:
Assay in all cases: growth of human tumour cells (NCI), 48 h
786-0 = system: 786-0
A498 = system: A498
A549 = system: A549
ACHN = system: ACHN
BT-549 = system: BT-549
CAKI-1 = system: CAKI-1
CCRF-CEM = system: CCRF-CEM
COLO 205 = system: COLO 205
DU-145 = system: DU-145
EKVX = system: EKVX
HCC 2998 = system: HCC 2998
HCT-116 = system: HCT-116
HCT-15 = system: HCT-15
HL-60 = system: HL-60
HOP-92 = system: HOP-92
HT-29 = system: HT-29
Hs-578T = system: Hs-578T
IGROV-1 = system: IGROV-1
K562 = system: K562
KM12 = system: KM12
LOX IMVI = system: LOX IMVI
M14 = system: M14
MCF7 = system: MCF7
MDA-MB-231 = system: MDA-MB-231
MDA-MB-435 = system: MDA-MB-435
MDA-N = system: MDA-N
MOLT-4 = system: MOLT-4
Malme-3M = system: Malme-3M
NCI-H226 = system: NCI-H226
NCI-H23 = system: NCI-H23
NCI-H460 = system: NCI-H460
NCI/ADR-RES = system: NCI/ADR-RES
OVCAR-3 = system: OVCAR-3
OVCAR-5 = system: OVCAR-5
OVCAR-8 = system: OVCAR-8
PC-3 = system: PC-3
RXF 393 = system: RXF 393
SF-268 = system: SF-268
SF-295 = system: SF-295
SF-539 = system: SF-539
SK-MEL-28 = system: SK-MEL-28
SK-MEL-2 = system: SK-MEL-2
SK-MEL-5 = system: SK-MEL-5
SK-OV-3 = system: SK-OV-3
SN12C = system: SN12C
SNB-19 = system: SNB-19
SNB-75 = system: SNB-75
SW-620 = system: SW-620
T47D = system: T47D
TK-10 = system: TK-10
U-251 = system: U-251
UACC-257 = system: UACC-257
UACC-62 = system: UACC-62
UO-31 = system: UO-31
HOP-62 = system: HOP-62
NCI-H522 = system: NCI-H522
OVCAR-4 = system: OVCAR-4
RPMI-8226 = system: RPMI-8226
SR = system: SR

Measured: GI50

CC1OC23CCCCC2C(C#N)(C#N)C1(C#N)C(=N)O3 (configuration not stated)
inactive: 786-0 12.8 µM | A498 27.2 µM | A549 96.2 µM | ACHN 19.9 µM | BT-549 17.7 µM | CAKI-1 6.9 µM | CCRF-CEM 5.94 µM | COLO 205 14.7 µM | DU-145 24.3 µM | EKVX 28.6 µM | HCC 2998 25.5 µM | HCT-116 16.6 µM | HL-60 4.21 µM | HOP-92 13.8 µM | HT-29 27.1 µM | Hs-578T 21.8 µM | IGROV-1 19.6 µM | K562 13.7 µM | KM12 24.3 µM | LOX IMVI 17.6 µM | M14 20.1 µM | MCF7 20.7 µM | MDA-MB-231 15.7 µM | MDA-MB-435 20.8 µM | MDA-N 18.4 µM | MOLT-4 23.2 µM | Malme-3M 20.4 µM | NCI-H226 > 100 µM | NCI-H23 21 µM | NCI-H460 17.9 µM | NCI/ADR-RES 37.4 µM | OVCAR-3 17.7 µM | OVCAR-5 22 µM | OVCAR-8 20.7 µM | PC-3 24.4 µM | RXF 393 19.7 µM | SF-268 24.7 µM | SF-295 70 µM | SF-539 21.8 µM | SK-MEL-28 21.7 µM | SK-MEL-2 19.9 µM | SK-MEL-5 16.3 µM | SK-OV-3 > 100 µM | SN12C 15.3 µM | SNB-19 22.8 µM | SNB-75 38.3 µM | SW-620 8.75 µM | T47D 18.7 µM | TK-10 22.5 µM | U-251 22.8 µM | UACC-257 18 µM | UACC-62 > 10 µM | UO-31 > 10 µM
15.3 µM: HCT-15

CC(C)(C)OC(=O)N1CC(O)O[C@H](c2ccccc2)[C@@H]1c1ccccc1 (some centres not stated)
inactive: 786-0 27.9 µM | A498 21.4 µM | A549 18.7 µM | BT-549 17.8 µM | CAKI-1 44.9 µM | CCRF-CEM 21.6 µM | COLO 205 31 µM | DU-145 25.5 µM | EKVX 19.5 µM | HCT-116 44.6 µM | HOP-62 16.3 µM | HOP-92 16.7 µM | HT-29 20.6 µM | Hs-578T 32.4 µM | IGROV-1 18.9 µM | K562 33.4 µM | KM12 19.2 µM | LOX IMVI 35.7 µM | M14 16.4 µM | MDA-MB-231 28.2 µM | MDA-MB-435 17.3 µM | MDA-N 28.2 µM | MOLT-4 30.4 µM | Malme-3M 19.4 µM | NCI-H226 20.6 µM | NCI-H23 15.9 µM | NCI-H522 21.2 µM | NCI/ADR-RES 26.4 µM | OVCAR-3 15.6 µM | OVCAR-4 18.5 µM | OVCAR-5 17.9 µM | OVCAR-8 29.7 µM | PC-3 14.7 µM | RPMI-8226 24.7 µM | RXF 393 15.1 µM | SF-268 25.5 µM | SF-295 16.4 µM | SK-MEL-28 18.6 µM | SK-MEL-2 14.5 µM | SK-MEL-5 27.9 µM | SK-OV-3 14.9 µM | SN12C 38.2 µM | SNB-19 15.7 µM | SNB-75 24.8 µM | SR 16.7 µM | SW-620 16.6 µM | T47D 31.1 µM | TK-10 17.8 µM | U-251 14.4 µM | UACC-257 17.7 µM | UACC-62 14.3 µM | UO-31 17.6 µM
18 µM: HCT-15
